For assay [1], the system named is stimulant actions of prostaglandins on isolated smooth muscle preparations. Conditions: literature; cited from earlier work.
The target of assay [2] is T1, prostaglandin E2-induced contractions of segments of guinea pig ileum (Cavia porcellus, UniProt A0A286XHJ6).
T1 construct: Segments of ileum about 2 cm long were then cut and mounted in a 10-mL tissue bath; from tissue; host or cells: guinea pig ileum segments
T1 sequence (A0A286XHJ6 1-405): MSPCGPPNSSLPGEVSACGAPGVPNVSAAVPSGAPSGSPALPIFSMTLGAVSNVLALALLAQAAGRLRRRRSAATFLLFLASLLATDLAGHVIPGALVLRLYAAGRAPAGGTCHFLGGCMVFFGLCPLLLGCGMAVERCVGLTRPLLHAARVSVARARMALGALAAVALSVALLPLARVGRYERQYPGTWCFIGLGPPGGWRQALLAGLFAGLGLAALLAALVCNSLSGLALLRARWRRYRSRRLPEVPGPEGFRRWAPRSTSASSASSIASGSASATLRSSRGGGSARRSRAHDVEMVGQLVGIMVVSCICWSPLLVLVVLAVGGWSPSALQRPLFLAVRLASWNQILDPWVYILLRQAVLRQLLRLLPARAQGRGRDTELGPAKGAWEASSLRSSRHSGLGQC
Kind of assay: Prostaglandin (PGE) Antagonism Assay, guinea pig ileum. Details: key to PGE in guinea pig ileum, activity: Active: the initial concentration used yielded at least a two-fold shift (dose ratio greater than or equal to 2) in the dose response curve for prostaglandin E2. In kind it is cell-based. Here is the method: In order to determine the effectiveness of several of the compounds of the present invention ("test compounds") as prostaglandin E2 antagonists,a prostaglandin antagonism assay was conducted, as described below, to determine the ability of these compounds to inhibit prostaglandin E2 -induced contractions of segments of guinea pig ileum.
Male albino guinea pigs weighing 200 to 500 grams were sacrificed by cervical dislocation. The ilea were then quickly removed from the guinea pigs and placed in a modified Tyrode solution, a solution which is known to those skilled in the art, containing one-half of the usual amount of magnesium ions.
Segments of ileum about 2 cm long were then cut and mounted in a 10-mL tissue bath containing the modified Tyrode solution. The solution was maintained at 37° C. and aerated with a gaseous mixture of 95% oxygen and 5% carbon dioxide. Data for a control prostaglandin E2 dose response curve plotting concentration of prostaglandin E2 versus the intensity of contractions, detected isotonically, was then obtained by experimentally adjusting the dose of the prostaglandin E2 being injected into the tissue bath, in a manner known by those of skill in the art.
solutions or suspensions containing an initial concentration (3 micromolar) of a test compound in modified Tyrode solution ("test solutions/suspensions") were then separately substituted for the control bath solution. Each test solution/suspension was then kept in constant contact with the ileum tissue, except for brief periods to drain the bath in preparation for rinsing with fresh test solution/suspension. A second prostaglandin E2 dose response curve was then generated for prostaglandin E2 in the presence of a test compound.
A dose ratio of EC50 doses was then calculated from the results of each test in a manner known by those of skill in the art. A test compound was determined to be "active" if the initial concentration used yielded at least a two-fold shift (dose ratio greater than or equal to 2) in the dose response curve for prostaglandin E2.

In assay [3] the test system is mouse injected with PBQ. The assay is described as follows: Writhing Assay (PBQ-induced writhing in mice). In kind it is in vivo, Charles River male albino mice. Conditions: for ED50: Mus musculus. The text has this:
The Writhing Assay is one of the most widely-used experimental procedures for measuring the analgesic activity of different narcotic and nonnarcotic analgesic agents, and involves the continuous, chemically-induced pain of visceral origin to an animal, such as a mouse or rat. [Gyires et al., Arch., int. Pharmacodyn, 267, 131-140 (1984); C. Vander Wende et al., Fed. Proc., 15, 494 (1956); Koster et al., Fed. Proc., 18, 412 (1959); and Witken et al., J. Pharmacol. exp. Ther., 133, 400-408 (1961).] Chemicals which may be used to induce this pain include phenylbenzoquinone (PBQ) and acetic acid. As a result of the chemical irritation to the animal, a characteristic stretching and writhing of the animal (dorsiflexion of the animal's back, extension of its hindlimbs and the strong contraction of its abdominal musculature) will generally occur. […] Drugs which reduce the number of writhes of the animal appear to restore the normal nociceptive threshold of the animal.
Charles River male albino mice, weighing 20 to 30 grams, were used in this assay.
Thirty minutes after subcutaneous or intragastric administration to ten mice of 30 mg per kilogram of body weight of a compound of the present invention ("test compound"), […] per 10 g of body weight of a 0,025% w/v solution of PBQ was injected intraperitoneally into each mouse. Ten mice which were given saline in place of a test compound of the invention were used as a control group.
Five minutes later, each mouse was individually placed into a glass beaker for observation, and the number of writhes occurring during the following ten-minute period was counted.
A test compound was considered to have produced analgesia in a mouse if, in accordance with the conditions set forth above, and under the test criteria employed for this assay, after the administration of 30 mg per kilogram of body weight of a compound of the present invention to the mouse, the number of writhes elicited by a mouse injected with PBQ was equal to, or less than, one-half the median number of writhes recorded for the saline-treated control group of mice that day, as described by Taber in "Predictive Value of Analgesic Assays in Mice and Rats," Advances in Biochemical Psychopharmacology, 8, 191 (1974).
The standard initial screening dose of a test compound employed in this assay was […] for both routes of administration. If this initial screening dose of the test compound produced analgesia in seven of ten mice, then the effect of additional doses of the test compound on the writhing response was evaluated, and then the ED50 dose was generally calculated. (The slopes of the dose-response curves for all test compounds analyzed were compared as described by Tallarida and Murray, Manual of Pharmacologic Calculations, Page 11 (Springer Verlag, New York, 1981)).
On the technique in general: Writhing tests count abdominal constrictions after an irritant is injected.

Assay [4] deals with urethane-anesthetized rats. Conditions: literature; cited from earlier work.
Where [5] appears, read: estimated, assuming Schild slope -1.0, initial concentration 3 micromolar, read-out: PGE in guinea pig ileum, Estimated pA2 value (converted).
Setting [6] is: initial concentration 3 micromolar.
Setting [7] is: Schild plot calculation, varying concentrations, read-out: PGE in guinea pig ileum (pA2) (converted).
The mark [8] stands for this setting: sc, subcutaneous, read-out: Writhing Assay ED50 Dose, S.C.
The mark [9] stands for this setting: po, intragastric, read-out: Writhing Assay ED50 Dose, I.G.

Molecules are shown by their SMILES. “Also recorded” adds a separate entry of the source. Counter-ions that a name gives are not always drawn. Like-named read-outs stand apart in the source and are kept apart here.

As to `O=C(Cc1ccccc1)NNC(=O)N1Cc2ccccc2Oc2ccc(Cl)cc21` [SC-18637], the “effect on stimulant actions of prostaglandins on isolated smooth muscle preparations” value in assay [1] was “inhibit the stimulant actions of prostaglandins on isolated smooth muscle preparations”.

Regarding `CCS(=O)(=O)CCC(=O)CNC(=O)N1Cc2ccccc2Oc2ccc(Cl)cc21` [Example 8, 8-chloro-N-[4-(ethylsulfonyl)-2-oxobutyl]dibenz[b,f][1,4]oxazepin-10(11H)-carboxamide], the Kb in assay [2] (setting [5]) was 2510 nM. Besides, the “PGE in guinea pig ileum, activity” value in assay [2] (setting [6]) is listed as “Active”.

`O=C(CCNCc1cccs1)NCC(=O)N1Cc2ccccc2Oc2ccc(Cl)cc21` [Example 7, N-[2-(8-chloro-10,11-dihydrodibenz[b,f][1,4]oxazepin-10-yl)-2-oxoethyl)-3-[(2-thienylmethyl)amino]propanamide, monohydrochloride]: in assay [2] (setting [7]), the Kb is 316 nM. Also, the “PGE in guinea pig ileum, activity” value in assay [2] (setting [6]) is listed as “Active”.

Regarding `CN(C)CCSCCC(=O)NCC(=O)N1Cc2ccccc2Oc2ccc(Cl)cc21` [Example 6, N-[2-(8-chloro,10,11-dihydrodibenz[b,f][1,4]oxazepin-10-yl)-2-oxoethyl]-3-[[2-(dimethylamino)ethyl]thio]propanamide, monohydrochloride], the Kb in assay [2] (setting [5]) was 1260 nM. Besides, the “PGE in guinea pig ileum, activity” value in assay [2] (setting [6]) is recorded as “Active”.

Take `NCCC(=O)NCC(=O)N1Cc2ccccc2Oc2ccc(Cl)cc21` [Example 5, 3-Amino-N-[2-(8-chloro-10,11-dihydrodibenz[b,f][1,4]oxazepin-10-yl)-2-oxoethyl]-propanamide, monohydrochloride]: the “PGE in guinea pig ileum, Estimated pA2 value” in assay [2] (estimated, assuming Schild slope -1.0, initial concentration 3 micromolar) is reported as 5.5. Moreover, the “PGE in guinea pig ileum, activity” value in assay [2] (setting [6]) is “Active”.

In the case of `O=C(CCc1ccncc1)NCC(=O)N1Cc2ccccc2Oc2ccc(Cl)cc21` [Example 3, N-[2-{8-chloro-10,11-dihydrodibenz[b,f][1,4]oxazepin-10-yl)-2-oxoethyl]-4-pyridinepropanamide, monohydrochloride], the “rank order of potency in the Writhing Assay” value (shortened to “rank order of potency”) in assay [3] was “Example 1>Example 2>Example 3>Example 9”. In addition, the 50% effective dose (ED50) in assay [3] (setting [8]) came out at 16.9 mg/kg. In addition, in assay [2] (setting [5]), the Kb was 2000 nM. The “PGE in guinea pig ileum, activity” value in assay [2] (setting [6]) is “Active”.

As to `CCS(=O)(=O)CCC(=O)NCC(=O)N1Cc2ccccc2Oc2ccc(Cl)cc21` [Example 1, N-[2-(8-chloro-10,11-dihydrodibenz[b,f][1,4]oxazepin-10-yl)-2-oxoethyl]-3-(ethylsulfonyl) propanamide], in assay [3], the “rank order of potency” value was “Example 1>Example 2>Example 3>Example 9; also recorded: the most potent compound of the invention tested in this assay”. Further, the ED50 in assay [3] (setting [9]) is 5.9 mg/kg; in assay [3] (setting [8]) it was 11.2 mg/kg. Further, in assay [2] (setting [5]), the Kb is 2000 nM. Also, in assay [2] (setting [6]), the “PGE in guinea pig ileum, activity” value is “Active”.

On to `O=C(CCSCc1cccs1)NCC(=O)N1Cc2ccccc2Oc2ccc(Cl)cc21` [Example 4, N-[2-(8-chlorodibenz-10-11-dihydrobenz[b,f][1,4]oxazepin-10-yl)-2-oxoethyl]-3-[(2-thenylmethyl)thio]propanamide], for which, in assay [2] (setting [7]), the Kb is 12.6 nM. Moreover, the “PGE in guinea pig ileum, activity” value in assay [2] (setting [6]) is “Active”.

Take `O=C(CCSCc1ccco1)NCC(=O)N1Cc2ccccc2Oc2ccc(Cl)cc21` [Example 2, N-[2-(8-chloro-10,11-dihydrodibenz[b,f][1,4]oxazepin-10-yl)-2-oxoethyl]-3[(2-furanylmethyl)thio]propanamide]: the “rank order of potency” value in assay [3] is “Example 1>Example 2>Example 3>Example 9”. The median effective dose (ED50) came out at 13.5 mg/kg in assay [3] (setting [9]) and 14.8 mg/kg in assay [3] (setting [8]). Also, the Kb in assay [2] (setting [7]) is 10 nM. Further, the “PGE in guinea pig ileum, activity” value in assay [2] (setting [6]) is given as “Active”.

As to `O=C(CCSCc1ccco1)CNC(=O)N1Cc2ccccc2Oc2ccc(Cl)cc21` [Example 9, 8-chloro-N-[4-[(2-furanylmethyl)thio]-2-oxobutyl]dibenz[b,f][1,4]oxazepin-10(11H]-carboxamide], the “rank order of potency” value in assay [3] was “Example 1>Example 2>Example 3>Example 9”. Moreover, the Kb in assay [2] (setting [7]) is 63.1 nM. In addition, the “PGE in guinea pig ileum, activity” value in assay [2] (setting [6]) is listed as “Active”.

In the case of `CC(=O)NNC(=O)N1Cc2ccccc2Oc2ccc(Cl)cc21` [SC-19220], in assay [1], the “effect on stimulant actions of prostaglandins on isolated smooth muscle preparations” value is “inhibit the stimulant actions of prostaglandins on isolated smooth muscle preparations”. For the same molecule, in assay [4], the “effect on bladder capacity” value was “increased the bladder capacity” and the “effect on voiding efficiency of micturition” value is recorded as “reduced the voiding efficiency of micturition”.

A word on the ED50: it is the dose at which the effect has come halfway, by size or by number of responders.

(Values after patent publication US5382578A, “Methods for treating convulsions and ischemia with substituted dibenzoxazepine compounds” (G. D. Searle & Co., priority 1993, dated 1995).)
